In this experiment the target is T1, Full length human recombinant HDAC8 protein (Homo sapiens, UniProt Q9BY41).
T1 construct: Full length human recombinant HDAC8 protein was expressed in baculoviral system; made in house
T1 sequence (Q9BY41 1-377): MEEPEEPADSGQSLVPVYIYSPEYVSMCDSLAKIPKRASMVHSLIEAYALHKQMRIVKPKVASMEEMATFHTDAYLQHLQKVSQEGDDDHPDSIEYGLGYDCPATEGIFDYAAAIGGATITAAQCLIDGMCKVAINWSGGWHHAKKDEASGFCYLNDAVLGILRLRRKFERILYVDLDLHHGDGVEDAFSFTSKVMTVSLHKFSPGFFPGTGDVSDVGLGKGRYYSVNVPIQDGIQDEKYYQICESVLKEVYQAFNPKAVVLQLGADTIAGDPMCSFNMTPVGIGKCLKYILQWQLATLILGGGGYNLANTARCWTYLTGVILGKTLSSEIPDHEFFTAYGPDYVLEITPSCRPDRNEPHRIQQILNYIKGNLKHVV
The experiment in a line: In vitro histone deacetylase assay: enzymatic HDAC8 assay, electrophoretic mobility shift. The format is biochemical. Particulars: substrate RHKK(Ac)-NH2, 1 nM enzyme, compounds listed under IC50 range headings. In a few lines: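 Readout was microfluidic mobility-shift separation of deacetylated product from fluorescent RHKK(Ac)-NH2 substrate (2 µM), after reaction with 1 nM recombinant full-length human HDAC8 at 25 °C, pH 7.5, stopped with SDS. Twelve 3-fold-spaced concentrations tested; product/sum ratios normalized to controls and fitted with a 4-parameter model for IC50.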
Background: In EMSA bound probe runs differently from free probe, usually more slowly.

For orientation: IC50 means the concentration that gives 50% inhibition. For the molecule `CC(C)CCC(=O)NC1CCN(c2ccccc2/C=C/C(=O)NO)CC1` [Example I-157, (E)-N-(1-(2-(3-(hydroxyamino)-3-oxoprop-1-en-1-yl)phenyl)piperidin-4-yl)-4-methylpentanamide], the IC50 is < 1000 nM.

With `O=C(/C=C/c1ccccc1NCC1CCCCC1)NO` [Example I-55, (E)-3-(2-((cyclohexylmethyl)amino)phenyl)-N-hydroxyacrylamide], the IC50 was < 1000 nM.

Turning to `O=C(/C=C/c1ccccc1N1CCC(NC(=O)CSc2ccc(F)cc2)CC1)NO` [Example I-129, (E)-3-(2-(4-(2-((4-fluorophenyl)thio)acet-amido)piperidin-1-yl)phenyl)-N-hydroxyacrylamide], the IC50 is < 1000 nM. `O=C(/C=C/c1ccccc1N1CCN(C(=O)c2ccc3c(c2)OCO3)CC1)NO` [Example I-207, (E)-3-(2-(4-(benzo[d][1,3]dioxole-5-carbonyl)piperazin-1-yl)phenyl)-N-hydroxyacrylamide]: the half-inhibitory concentration (IC50) was < 1000 nM.

Take `O=C(/C=C/c1ccccc1NCC1CCOC1)NO` (stereo not drawn) [Example I-106, (E)-N-hydroxy-3-(2-(((tetrahydrofuran-3-yl)methyl)amino)phenyl)acrylamide]: the 50% inhibitory concentration (IC50) was < 1000 nM. Regarding `O=C(/C=C/c1ccccc1NCc1ccc(Cl)cc1)NO` [Example I-86, (E)-3-(2-((4-chlorobenzyl)amino)phenyl)-N-hydroxyacrylamide], the IC50 is < 1000 nM.

As to `O=C(/C=C/c1ccccc1NC(=O)c1nccn1-c1ccccc1C(F)(F)F)NO` [Example I-38, (E)-N-(2-(3-(hydroxyamino)-3-oxoprop-1-en-1-yl)phenyl)-1-(2-(trifluoromethyl)phenyl)-1H-imidazole-2-carboxamide], the IC50 is 1000 to 10000 nM. With `COCC1(N(C)C(=O)c2ccccc2/C=C/C(=O)NO)CC1` [II-11, (E)-2-(3-(hydroxyamino)-3-oxoprop-1-en-1-yl)-N-(1-(methoxymethyl)cyclopropyl)-N-methylbenzamide], the IC50 fell in the range of 1000 to 10000 nM.

As to `O=C(/C=C/c1ccccc1C(=O)Nc1cccc(C(F)(F)F)c1)NO` [II-36, (E)-2-(3-(hydroxyamino)-3-oxoprop-1-en-1-yl)-N-(3-(trifluoromethyl)phenyl)benzamide], the half-maximal inhibitory concentration (IC50) was < 1000 nM.

As for `Cn1nc(C(F)(F)F)cc1-c1ccc(C(=O)Nc2ccccc2/C=C/C(=O)NO)s1` [Example I-78, (E)-N-(2-(3-(hydroxyamino)-3-oxoprop-1-en-1-yl)phenyl)-5-(1-methyl-3-(trifluoromethyl)-1H-pyrazol-5-yl)thiophene-2-carboxamide], the IC50 is < 1000 nM. Regarding `O=C(/C=C/c1ccccc1N1CCC(NS(=O)(=O)C2CC2)CC1)NO` [Example I-241], the concentration for half-maximal inhibition (IC50) is < 1000 nM. The figure for `O=C(/C=C/c1ccccc1N1CC2(CC(NC(=O)OCc3ccccc3)CS2(=O)=O)C1)NO` (stereo not drawn) [Example I-114, benzyl (E)-(2-(2-(3-(hydroxyamino)-3-oxoprop-1-en-1-yl)phenyl)-5,5-dioxido-5-thia-2-azaspiro[3,4]octan-7-yl)carbamate] is < 1000 nM. The same measure for `O=C(/C=C/c1ccccc1C(=O)N1CCC2(CC1)OCc1ccccc12)NO` [II-9, (E)-3-(2-(3H-spiro[isobenzofuran-1,4′-piperidine]-1′-carbonyl)phenyl)-N-hydroxyacrylamide]: 1000 to 10000 nM; for `O=C(/C=C/c1ccccc1N1CCC(NS(=O)(=O)c2ccc3c(c2)OCCO3)CC1)NO` [Example I-231, (E)-3-(2-(4-((2,3-dihydrobenzo[b][1,4]dioxine)-6-sulfonamido)piperidin-1-yl)phenyl)-N-hydroxyacrylamide]: < 1000 nM; for `CC(C)N(Cc1cccc(C(F)(F)F)c1)c1ccccc1/C=C/C(=O)NO` [Example I-216, (E)-N-hydroxy-3-(2-(isopropyl(3-(trifluoromethyl)benzyl)amino)phenyl)acrylamide]: < 1000 nM. In the case of `O=C(/C=C/c1ccccc1N1CCN(Cc2ccccc2F)CC1)NO` [Example I-164, (E)-3-(2-(4-(2-fluorobenzyl)piperazin-1-yl)phenyl)-N-hydroxyacrylamide], the concentration for half-maximal inhibition (IC50) was < 1000 nM.

As to `O=C(/C=C/c1ccccc1N1CCC(NS(=O)(=O)Cc2cccc(F)c2)CC1)NO` [Example I-235, (E)-3-(2-(4-(((3-fluorophenyl)methyl)sul-fonamido)piperidin-1-yl)phenyl)-N-hydroxyacrylamide], the concentration for half-maximal inhibition (IC50) was < 1000 nM. As to `Cn1cc2c(n1)CCN(C(=O)c1ccccc1/C=C/C(=O)NO)C2` [II-25, (E)-N-hydroxy-3-(2-(2-methyl-4,5,6,7-tetrahydro-2H-pyrazolo[4,3-c]pyridine-5-carbonyl)phenyl)acrylamide], the IC50 was < 1000 nM.

Consider `O=C(/C=C/c1ccccc1N1CCN(S(=O)(=O)c2ccc(CNC(=O)c3ccccc3)s2)CC1)NO` [Example I-32, (E)-N-((5-((4-(2-(3-(hydroxyamino)-3-oxoprop-1-en-1-yl)phenyl)piperazin-1-yl)sulfonyl)thiophen-2-yl)methyl)benzamide], for which the 50% inhibitory concentration (IC50) fell in the range of 1000 to 10000 nM. On to `O=C(/C=C/c1ccccc1NC(=O)C1(O)CCC1)NO` [Example I-6, (E)-1-hydroxy-N-(2-(3-(hydroxyamino)-3-oxoprop-1-en-1-yl)phenyl)cycobutane-1-carboxamide], for which the 50% inhibitory concentration (IC50) was in the range of 1000 to 10000 nM.

On to `O=C(/C=C/c1ccccc1N1CCN(C(=O)c2cc3ccccc3[nH]2)CC1)NO` [Example I-25, (E)-3-(2-(4-(1H-indole-2-carbonyl)piperazin-1-yl)phenyl)-N-hydroxyacrylamide], for which the half-inhibitory concentration (IC50) lay within 1000 to 10000 nM. For the molecule `O=C(/C=C/c1ccccc1N1CCN(CCCc2ccccc2)CC1)NO` [Example I-166, (E)-N-hydroxy-3-(2-(4-(3-phenylpropyl)piperazin-1-yl)phenyl)acrylamide], the IC50 was < 1000 nM. In the case of `Cc1nnc(C)n1C1CCN(C(=O)c2ccccc2/C=C/C(=O)NO)CC1` [II-26, (E)-3-(2-(4-(3,5-dimethyl-4H-1,2,4-triazol-4-yl)piperidine-1-carbonyl)phenyl)-N-hydroxyacrylamide], the 50% inhibitory concentration (IC50) was < 1000 nM.

As for `O=C(/C=C/c1ccccc1N1CCN(CC2CCOC2)CC1)NO` (stereo not drawn) [Example I-167, (E)-N-hydroxy-3-(2-(4-((tetrahydrofuran-3-yl)methyl)piperazin-1-yl)phenyl)acrylamide], the IC50 was < 1000 nM. On to `COc1ccc(CN2CCN(c3ccccc3/C=C/C(=O)NO)CC2)cc1` [Example I-172, (E)-N-hydroxy-3-(2-(4-(4-methoxybenzyl)piperazin-1-yl)phenyl)acrylamide], for which the IC50 is < 1000 nM. As for `O=C(/C=C/c1ccccc1NC(=O)c1sc2ccccc2c1Cl)NO` [Example I-269, (E)-3-chloro-N-(2-(3-(hydroxyamino)-3-oxoprop-1-en-1-yl)phenyl)benzo[b]thiophene-2-carboxamide], the half-maximal inhibitory concentration (IC50) was < 1000 nM. `COc1ccc(CNC(=O)c2ccccc2/C=C/C(=O)NO)cc1` [II-5, (E)-2-(3-(hydroxyamino)-3-oxoprop-1-en-1-yl)-N-(4-methoxybenzyl)benzamide]: the IC50 lay in the range of 1000 to 10000 nM.

Turning to `CC(=O)Nc1cccc(C(=O)Nc2ccccc2/C=C/C(=O)NO)c1` [Example I-42, (E)-3-acetamido-N-(2-(3-(hydroxyamino)-3-oxoprop-1-en-1-yl)phenyl)benazmide], the IC50 was < 1000 nM. As to `Cc1cc(C(=O)Nc2ccccc2/C=C/C(=O)NO)n(C)n1` [Example I-80, (E)-N-(2-(3-(hydroxyamino)-3-oxoprop-1-en-1-yl)phenyl)-1,3-dimethyl-1H-pyrazole-5-carboxamide], the IC50 is < 1000 nM. With `O=C(/C=C/c1ccccc1N1CCC(NC(=O)CCC(F)(F)F)CC1)NO` [Example I-130, (E)-4,4,4-trifluoro-N-(1-(2-(3-(hydroxyamino)-3-oxoprop-1-en-1-yl)phenyl)piperidin-4-yl)butanamide], the IC50 was < 1000 nM. The figure for `O=C(/C=C/c1ccccc1N1CCC(NS(=O)(=O)c2ccc(C(F)(F)F)nc2)CC1)NO` [Example I-226, (E)-N-hydroxy-3-(2-(4-((6-(trifluoromethyl)pyridine)-3-sulfonamido)piperidin-1-yl)phenyl)acrylamide] is < 1000 nM.

With `O=C(/C=C/c1ccccc1C(=O)N1CCC(C(F)(F)F)CC1)NO` [II-23, (E)-N-hydroxy-3-(2-(4-(trifluoromethyl)piperidine-1-carbonyl)phenyl)acrylamide], the half-maximal inhibitory concentration (IC50) was < 1000 nM. Regarding `O=C(/C=C/c1ccccc1N1CCC(NCc2nccs2)CC1)NO` [Example I-190, (E)-N-hydroxy-3-(2-(4-((thiazol-2-ylmethyl)amino)piperidin-1-yl)phenyl)acrylamide], the IC50 is < 1000 nM. Turning to `O=C(/C=C/c1ccccc1N1CCN(C(=O)c2ccc(OC(F)F)cc2)CC1)NO` [Example I-212, (E)-3-(2-(4-(4-(difluoromethoxy)benzoyl)piperazin-1-yl)phenyl)-N-hydroxyacrylamide], the IC50 is < 1000 nM. For the molecule `O=C(/C=C/c1ccccc1C(=O)NC1CCCCC1)NO` [II-13, (E)-N-cyclohexyl-2-(3-(hydroxyamino)-3-oxoprop-1-en-1-yl)benzamide], the IC50 is < 1000 nM.

Consider `O=C(/C=C/c1ccccc1N1CCN(S(=O)(=O)Cc2ccc(F)cc2)CC1)NO` [Example I-251, (E)-3-(2-(4-((4-fluorobenzyl)sulfonyl)pi-perazin-1-yl)phenyl)-N-hydroxyacrylamide], for which the concentration for half-maximal inhibition (IC50) was < 1000 nM.

(Values after patent US10508077B2 (FORMA Therapeutics, Inc., priority 2015, dated 2019).)
